Entries after “also recorded” stand apart in the source; their conditions may differ.
Experiments:
[1] = tested on: dissociated neonatal rat cardiac fibroblasts; conditions: fibroblasts exposed to AngII; cited from earlier work
[2] = tested on: trans-aortic constriction (TAC) banded mice; test: Transthoracic echocardiography in TAC banded mice, ATRA protection study; format: in vivo
Method: (§1) TAC banding creates a fixed afterload obstruction in the systemic circulation and serves as an excellent model for drug testing as the surgically-induced coarctation cannot be reversed by medical therapy.
The effect of TAC banding on left atrial function was measured next by using reservoir strain analysis. 8,30 Left atrial reservoir strain analysis is a sensitive modality to study left atrial mechanics of both relaxation (conduit strain) and contraction (contractile strain) in an angle-independent fashion.

TAC banded mice [3] = test: Left atrial fibrosis burden, ImageJ analysis on Masson's trichrome stained sections; format: in vivo; conditions: for collagen volume fraction in LA: 10 mg/kg/day IP, two weeks
Text: as §1

guinea pig HF model = conditions: cited from earlier work
[4] = tested on: trans-aortic constriction (TAC) banded mice; test: Electrocardiogram in TAC banded mice, ATRA protection study; format: in vivo; conditions: two weeks
Text: as §1
On ECG, the P wave duration is a measure of atrial activation time, the PR interval is a measure of atrial-to-ventricular activation time that includes the atrio-ventricular nodal conduction time, the QRS duration is a measure of ventricular activation time, and the HR-corrected QT (QTc) interval is a measure of ventricular repolarization time. […] In TAC banded mice treated with vehicle control (TAC+V), the heart rate (HR) was increased, the P wave, QRS wave, and QTc interval durations were prolonged, and the PR interval was shortened compared to Sham groups.

[5] = tested on: Mice deficient in ALDH1A2; conditions: maternal supplementation with oral ATRA; cited from earlier work
TAC banded hearts [6] = test: Optical mapping of Langendorff-perfused hearts; format: ex vivo, mice; conditions: Sham+V, TAC+V and TAC+ATRA hearts compared
Method: Optical mapping of Langendorff-perfused hearts from Sham+V, TAC+V, and TAC+ATRA hearts. (FIG. 6A) Representative left atrial activation maps at 37° C. Hearts were paced at 100 ms basic cycle length (BCL) from the right atria. (FIG. 6B) Calculated LA conduction velocity (CV). (FIG. 6C) Calculated left ventricular CV (FIG. 6D) ECG tracing of sustained atrial arrythmia in TAC+V heart after atrial burst pacing protocol.^6 (FIG. 6E) Left atrial activation map of sustained atrial arrythmia shown in panel (FIG. 6D). Isochrones are drawn 1 ms apart. Data represent mean+S.E.M. n=4-5 per group. One-way ANOVA was used followed by Tukey's test for multiple comparisons to compare differences between experimental groups. * p-value<0.05, ** p-value<0.005, *** p-value<0.001, **** p-value<0.0001

chick embryos = conditions: excess ATRA; cited from earlier work
[7] = tested on: LA samples from TAC banded hearts; test: RNA-seq on LA samples from TAC+V and TAC+ATRA hearts; format: in vivo, mice
Text: Activation of the AngII signaling pathway in the LA from pressure overload is a powerful inducer of inflammation, fibrosis, and Cx43 gap junction remodeling. Blockade of AngII signaling can reduce atrial fibrosis and partially rescued Cx43 remodeling. ^38,39

TAC banded mice [8] = test: LA fibrosis burden in ATRA reversal study (delayed ATRA initiation); conditions: delayed treatment with ATRA, TAC banding
TAC banded hearts [9] = test: Atrial arrhythmia inducibility by atrial burst pacing; format: in vivo, mice; conditions: TAC+ATRA hearts
TAC banded mice [10] = test: ECG in ATRA reversal study (delayed ATRA initiation); format: in vivo; conditions: TAC+dATRA vs TAC+dV
TLR/NF-KB signaling = conditions: diabetic kidney; cited from earlier work
TAC banded mice [11] = test: ECG dose-response of ATRA in TAC banded mice; format: in vivo
ALDHIA1 and ALDH1A2 = conditions: in vivo; cited from earlier work
CYP26 = conditions: rodents; cited from earlier work
[12] = TAC+ATRA vs TAC+V, 10 mg/kg/day IP, two weeks, 10 mg/kg/day
[13] = TAC+ATRA vs TAC+V, ATRA 10 mg/kg/day IP
[14] = GO / REACTOME analysis of normalized genes
[15] = TAC+ATRA versus TAC+V LA, P<0.05
[16] = TAC+ATRA vs TAC+V over the dose range

CC1=C(/C=C/C(C)=C/C=C/C(C)=C/C(=O)O)C(C)(C)CCC1 [ATRA, all-trans retinoic acid]
TGF-β production [1]: reduces | collagen secretion [1]: reduces | proliferation [1]: reduces | echocardiographic measurements of the LA and LV ([2]; Sham+ATRA vs Sham+V, normal pressure conditions): no differences | LV fractional shortening (FS) [2, 12]: equally reduced | LV longitudinal strain [2, 12]: equally reduced | left atrial mechanics (reservoir strain) [2, 12]: significant improvement; also recorded: significantly improved | left ventricular hypertrophy (LV wall thickness) [2, 12]: increased in both TAC+V and TAC+ATRA cohorts | collagen volume fraction in LA (TAC banded mice [3]; Sham+ATRA): 5.3±0.1% | left atrial interstitial and perivascular fibrosis (TAC banded mice [3]; TAC+ATRA vs TAC+V): reduced; also recorded: limits | collagen volume fraction in LA (TAC banded mice [3]; TAC+ATRA): 8.3±0.6% | left ventricular systolic function (guinea pig HF model): improve | ventricular fibrosis (guinea pig HF model): reduce | ECG measurements ([4]; Sham+ATRA vs Sham+V, normal pressure conditions, 10 mg/kg/day IP): no differences | HR-corrected QT (QTc) interval [4, 13]: prolonged equally; also recorded: unchanged | P wave duration [4, 13]: prevents P wave prolongation; also recorded: reduced to normal levels | PR interval [4, 13]: does not significantly alter; also recorded: unchanged | QRS duration [4, 13]: prolonged equally; also recorded: unchanged | heart rate (HR) [4, 13]: unchanged | atrial defects [5]: rescue the atrial defects | left ventricular CV (TAC banded hearts [6]): not significantly different | atrial size (chick embryos): developed enlarged atria | pathways of ECM production, pro-inflammatory signaling and vasoconstriction [7, 14]: significantly downregulated | pathways of mitochondrial energy production and cardiac/atrial development [7, 14]: significantly upregulated | left atrial Scn5a expression ([7]; TAC banded hearts): increases | differentially expressed transcripts [7, 15]: 4133 transcripts | transcripts downregulated [7, 15]: 2058 transcripts | transcripts upregulated [7, 15]: 2075 transcripts | DEGs moving in reciprocal direction to the [TAC vs Sham] dataset (normalization) ([7]; [TAC+ATRA vs TAC+V] dataset): 1987 DEGs | expression of PDGF-A and PDGF-B ([7]; pressure overloaded LA): reduced expression | expression of TLR2, NF-KB signaling components, NLRP3 and IL-1b ([7]; pressure overloaded LA): downregulated | expression of angiotensin converting enzyme (ACE) ([7]; pressure overloaded LA): significantly downregulated | interstitial and perivascular fibrosis (TAC banded mice [8]): reverses | hearts with sustained atrial arrhythmia (lasting >30 sec) after atrial burst pacing (TAC banded hearts [9]): 0 out of 3 | P wave duration (TAC banded mice [10]; 10 mg/kg/day IP started two weeks post-TAC, for two weeks, 10 mg/kg/day): significantly reduces | PR interval (TAC banded mice [10]; delayed treatment): not significantly different; also recorded: unchanged | QRS duration (TAC banded mice [10]; delayed treatment): not significantly different; also recorded: unchanged | QTc interval (TAC banded mice [10]; delayed treatment): not significantly different; also recorded: unchanged | heart rate (HR) (TAC banded mice [10]; delayed treatment): unchanged | production of inflammatory cytokines, chemokines, adhesion molecules and growth factors (TLR/NF-KB signaling): block cytokine, chemokine, and growth factor production; also recorded: blocks production | P wave duration shortening (TAC banded mice [11]; 20 mg/kg dose compared with 10): no further shortening | reduction of P wave prolongation, dose dependence (TAC banded mice [11]; 2, 5, 10, 20 mg/kg daily IP, two weeks): dose-dependent fashion | ventricular ectopy (potential cardiotoxicity) (TAC banded mice [11]; ATRA 20 mg/kg daily IP): increased ventricular ectopy | PR interval (TAC banded mice [11]; [16]): no significant dose-dependent effect; also recorded: not significantly changed | QRS duration (TAC banded mice [11]; [16]): no significant dose-dependent effect; also recorded: not significantly changed | heart rate (TAC banded mice [11]; [16]): no significant dose-dependent effect; also recorded: not significantly changed | ATRA dose of maximal P wave duration shortening (TAC banded mice [11]; daily IP, two weeks): 10 m/kg

O=C(NCCCCCCCCNC(=O)C(Cl)Cl)C(Cl)Cl [WIN18446]
ATRA biosynthesis (ALDHIA1 and ALDH1A2): efficiently block ATRA biosynthesis

CCC(CC)C(c1ccc(Nc2nc3ccccc3s2)cc1)n1cncn1 (stereo not shown) [talarozole]
ATRA levels (CYP26): effectively increase ATRA levels

From patent US20250161254A1, “USE OF RETINOIDS FOR TREATMENT OF ATRIAL FIBRILLATION” (NEW YORK UNIVERSITY, priority 2022, published 2025)
